Patent US20220347188A1, “PROMOTING TISSUE REGENERATION” (FRIEDRICH MIESCHER INSITUTE FOR BIOMEDICAL RESEARCH, priority 2019, published 2022)

System: intestinal organoids
Test: intestinal organoids cultured from single cells, image-based phenotypic assay
Assay type: cell-based
Source text: The present inventors developed a novel image-based phenotypic screening platform in intestinal organoids cultured from single cells to generate a toolbox of compounds shaping the intestinal organoid phenotypic landscape. The compounds were used to infer functional genetic interactions and identify pathways impacting different steps of organoid development. The inventors focused on compounds that improve the regeneration potential of the intestinal epithelium and discovered a novel role for nuclear retinoic acid receptors during organoid damage response and homeostasis both in vitro and in vivo.
FIG. 1 RXR activity is indispensable for symmetry breaking and cell type balance maintenance Representative images of organoids cultured from single cells in indicated treatment conditions (left), composite maximum intensity projections of confocal z-stacks, nuclei, DAPI, antibody staining for Lysozyme and Aldolase B, scale bar, 50 μm. Violin plots showing distribution of mean Aldolase B staining intensity in control and treated organoids (top right). Box plots inside violin plots show quartile range, whiskers show value interval with excluded outliers, white dots indicate median values, n, number of individual organoids in respective conditions. DMSO, DMSO control, RXRi, 5 μM RXR antagonist. […]

## CC1=C(/C=C/C(C)=C/C=C/C(C)=C/C(=O)O)C(C)(C)CCC1 [atRA, all-trans retinoic acid]
ALDH1A1 antibody staining and RARE reporter gene
  ALDH1A1-positive as well as RARE-positive region: expansion
Organoids cultured in presence of an RXR agonist and atRA
  absorptive enterocytes in organoids: increase in absorptive enterocytes
